Laboratory results: paper PMC7866972, “Crosstalk of Cancer Signaling Pathways by Cyclic Hexapeptides and Anthraquinones from Rubia cordifolia” (Molecules, 2021)
Converted amounts (≈) assume the structure as drawn. “Also recorded” adds a separate entry of the source. Read-outs that look alike come from different tables or passages of the source.

What was measured:
Assay type in all cases: cell-based
[1] = tested on: cancer-related signaling pathways in HeLa cells; test: Panel of luciferase reporter genes for cancer-related signaling pathways
Protocol: (§1) Hela cells from ATCC were plated in white opaque 384 well plates at a density of 4300 cells/well in 30 µL of a growth medium (DMEM with 10% FBS and 1% Pen/step). The next day, the medium was aspirated and replaced with DMEM containing 10% FBS. The cells were transfected with respective plasmids using the X-tremeGENE HP transfection reagent (Roche). Luciferase vectors used in this assay are summarized in Table S2, Supporting Information. After 24 h of transfection, the test agents were added to the transfected cells, followed 30 min later by an inducing agent (IL-6 for Stat 3, TGF-beta for Smad, m-wnt3a for Wnt and PMA for AP-1, NF-kB, E2F, Myc, ETS, Notch and Hedgehog). No inducer was added for FoXO, miR-21, and […]. After 4 h or 6 h of induction, the cells were lysed by the addition of the One-Glo luciferase assay system (Promega, Madison, WI, USA). The light output was detected in a Glomax Multi+ detection system with the Instinct Software (Promega, Madison, WI, USA). This luciferase assay determines if the test agent was able to inhibit the activation of cancer-related signaling pathways. In the case of FoxO and mi-R21, the enhanced luciferase activity by the test agent was assessed.
(§2) The simulated gastric fluid was prepared as described in the United States Pharmacopoeia (USP, 1995) and consists of 0.2% w/v of NaCl and 0.7% v/v of hydrochloric acid at pH 1.2. Aliquots (48 µL) of SGF were placed in 1.5-mL microcentrifuge tubes and incubated in a water bath at 37 °C [35]. In addition, 2 µL of compound 6 (10 mg/mL in DMSO) was added to each of the SGF vials to start the digestion reaction. The incubation was continued for 60 min and the digestion was stopped with 150 µL of ice-cold cell culture media. The digested samples were used for the cytotoxicity and luciferase assays at different concentrations and the activities were compared between the untreated and SGF treated peptide samples.

E2F = E2F luciferase reporter assay (PMA induced); details: Homo sapiens; for activity at 1 µg/mL: Hela cells, 4 h, read-out: percentage of luciferase induction E2F/PMA
Protocol: as §1

MDA-MB 231 cells = test: Cytotoxicity assay (WST-8) of SGF/SIF treated and untreated peptide; details: 48 h, SGF pH 1.2 60 min or SIF pH 7.5 with pancreatin 8 h, 37 °C, unpaired t-test
Protocol: (§3) T98G and MDA-MB 231 cells from ATCC, were plated in clear 384-well plates at an initial density of 1700 cells/well for T98G cells and 2500 cells/well of MDA-MB 231 cells in 40 µL of a growth medium (DMEM with 10% FBS and 1% Pen/step). The next day, the test agents were added at the specified concentration, the treatment continued for 48 h, and the cell viability was finally assessed using the WST-8 assay Cell Counting Kit from Bimake, according to the manufacturer’s instructions. The results were measured by absorbance at 450 nm using the SpectraMax M5 plate reader (Molecular Devices). The cell viability was calculated in comparison to the DMSO control.
as §2, with “samples. […]” for “samples.”

T98G cells = test: as above; details: 48 h, SGF pH 1.2 60 min or SIF pH 7.5 with pancreatin 8 h, 37 °C, unpaired t-test
Protocol: as §3
as §2, with “samples. […]” for “samples.”

Ap-1 = test: AP-1 luciferase reporter assay (PMA induced); details: for activity at 1 µg/mL: Hela cells, 4 h, read-out: percentage of luciferase induction Ap-1/PMA
Protocol: as §1

NF-κB = NF-κB luciferase reporter assay (PMA induced); details: Homo sapiens; for activity at 1 µg/mL: Hela cells, 4 h, read-out: percentage of luciferase induction NF-kB/PMA
Protocol: as §1

pTK control vector = pTK control vector luciferase assay (minimal thymidine kinase promoter); details: no inducer; for percentage of luciferase induction pTK: Hela cells, 1µg/ml
Protocol: as §1

Hedgehog = Hedgehog luciferase reporter assay (PMA induced); details: Homo sapiens; for activity at 1 µg/mL: Hela cells, 6 h, read-out: percentage of luciferase induction Hdghog/PMA
Protocol: as §1

Notch = Notch luciferase reporter assay (PMA induced); details: Homo sapiens; for activity at 1 µg/mL: Hela cells, 6 h, read-out: percentage of luciferase induction Notch/PMA
Protocol: as §1

Myc = Myc luciferase reporter assay (PMA induced); details: Homo sapiens; for activity at 1 µg/mL: Hela cells, 4 h, read-out: percentage of luciferase induction Myc/PMA
Protocol: as §1

Stat3 = Stat3 luciferase reporter assay (IL-6 induced); details: Homo sapiens; for activity at 1 µg/mL: Hela cells, 4 h, read-out: percentage of luciferase induction Stat3/IL-6
Protocol: as §1

FoxO = FoxO luciferase reporter assay (no inducer); details: for percentage of luciferase induction FoxO: Hela cells, 1µg/ml, 6 h
Protocol: as §1

miR-21 = miR-21 luciferase reporter assay (no inducer); details: Hela cells, 1µg/ml, 6 h
Protocol: as §1

Smad = Smad luciferase reporter assay (TGF-beta induced); details: for percentage of luciferase induction Smad/TGF-b: Hela cells, 1µg/ml, 4 h
Protocol: as §1

Wnt = Wnt luciferase reporter assay (m-wnt3a induced); details: Homo sapiens; for activity at 1 µg/mL: Hela cells, 6 h, read-out: percentage of luciferase induction Wnt/m-wnt 3a
Protocol: as §1

Ets = Ets luciferase reporter assay (PMA induced); details: Homo sapiens; for activity at 1 µg/mL: Hela cells, 4 h, read-out: percentage of luciferase induction Ets/PMA
Protocol: as §1

[2] = HeLa cells, agent added 30 min before PMA, harvested 4 h later, ND = No activity detected
[3] = SGF treated compound (pH 1.2, 37 °C, 60 min)

COc1ccc(C[C@H]2C(=O)N[C@@H](C)C(=O)N(C)[C@H]3Cc4ccc(cc4)Oc4cc(ccc4O)C[C@@H](C(=O)N[C@H](C)C(=O)N[C@@H](C)C(=O)N2C)N(C)C3=O)cc1 [Compound 6, deoxybouvardin]
activity of SGF treated peptide across the panel of cancer signaling pathways compared to untreated peptide ([1]; Hela cells, SGF treated, Table S1): comparable to the untreated peptide
IC50 ([1]; Homo sapiens, HeLa cells, summary statement on Table 1, read-out: IC50 values for several pathways across the panel): < 0.5 µg/mL
IC50 (E2F; [2]): 0.36 µg/mL (≈ 0.476 µM)
activity at 1 µg/mL (E2F; [3]): 8%
activity at 1 µg/mL (E2F; untreated compound): 82%
activity (cell viability) of SGF or SIF treated compared to untreated compound (MDA-MB 231 cells): remained the same before and after the treatment; also recorded: non-significant
activity (cell viability) of SGF or SIF treated compared to untreated compound (T98G cells): remained the same before and after the treatment; also recorded: non-significant
IC50 (Ap-1; [2]): 0.22 µg/mL (≈ 0.291 µM)
activity at 1 µg/mL (Ap-1; [3]): 43%
activity at 1 µg/mL (Ap-1; untreated compound): 48%
IC50 (NF-κB; [2]): 0.17 µg/mL (≈ 0.225 µM)
activity at 1 µg/mL (NF-κB; [3]): 34%
activity at 1 µg/mL (NF-κB; untreated compound): 33%
percentage of luciferase induction pTK (pTK control vector; [3]): 48%
percentage of luciferase induction pTK (pTK control vector; untreated compound): 50%
IC50 (pTK control vector; Homo sapiens, HeLa cells, ND = No activity detected): 0.9 µg/mL (≈ 1.19 µM)
IC50 (Hedgehog; HeLa cells, agent added 30 min before PMA, harvested 6 h later, ND = No activity detected, read-out: IC50 Hdghog/PMA): 0.2 µg/mL (≈ 0.264 µM)
activity at 1 µg/mL (Hedgehog; [3]): 5%
activity at 1 µg/mL (Hedgehog; untreated compound): 1%
IC50 (Notch; HeLa cells, agent added 30 min before PMA, harvested 6 h later, ND = No activity detected): 0.093 µg/mL (≈ 0.123 µM)
activity at 1 µg/mL (Notch; [3]): 56%
activity at 1 µg/mL (Notch; untreated compound): 65%
IC50 (Myc; [2]): 0.075 µg/mL (≈ 0.0991 µM)
activity at 1 µg/mL (Myc; [3]): 20%
activity at 1 µg/mL (Myc; untreated compound): -8%
IC50 (Stat3; HeLa cells, agent added 30 min before IL-6, harvested 4 h later, ND = No activity detected): 0.18 µg/mL (≈ 0.238 µM)
activity at 1 µg/mL (Stat3; [3]): -4%
activity at 1 µg/mL (Stat3; untreated compound): -4%
percentage of luciferase induction FoxO (FoxO; [3]): 68%
percentage of luciferase induction FoxO (FoxO; untreated compound): 51%
IC50 (FoxO; Homo sapiens, HeLa cells, harvested 6 h later, ND = No activity detected): 0.1 µg/mL (≈ 0.132 µM)
percentage of luciferase induction miR21 (miR-21; [3]): 150%
percentage of luciferase induction miR21 (miR-21; untreated compound): 183%
percentage of luciferase induction Smad/TGF-b (Smad; [3]): 41%
percentage of luciferase induction Smad/TGF-b (Smad; untreated compound): 33%
IC50 (Smad; Homo sapiens, HeLa cells, agent added 30 min before TGF-beta, harvested 4 h later, ND = No activity detected): 0.3 µg/mL (≈ 0.396 µM)
IC50 (Wnt; HeLa cells, agent added 30 min before m-wnt 3a, harvested 6 h later, ND = No activity detected): 0.05 µg/mL (≈ 0.0661 µM)
activity at 1 µg/mL (Wnt; [3]): 12%
activity at 1 µg/mL (Wnt; untreated compound): 6%
IC50 (Ets; [2]): 0.18 µg/mL (≈ 0.238 µM)
activity at 1 µg/mL (Ets; [3]): 58%
activity at 1 µg/mL (Ets; untreated compound): 60%
